This data set in a line: Dependence of aminoboronate (closed) and boronic acid (open) forms on pH, 1H-NMR in D2O phosphate. Format: physicochemical. The conditions noted are these: 0.4 M Na2HPO4 in D2O, three days in the dark, FIG. 1. How it is done: A 0.4 M stock solution of Na2HPO4 was prepared by dissolving 909 mg of salt in 16 mL of D2O. pH was adjusted to the desired value by dropwise addition of either […] in D2O or 5% DCl in D2O. The pH values were measured with a Fisher Scientific Accumet AB15 pH meter. Aliquots of the stock solution (4 mL) were prepared and 8 mg of compound 4 in the closed form (aminoboronate) were added to each one. The scintillation vials were capped, sealed with parafilm and allowed to stand in the dark for three days. After this time pH was measured again. The open/closed (i.e., linear/cyclic) ratio of compound 4 isomers at each pH was determined by recording the corresponding ^1H-NMR spectra in a Varian AS 500 MHz instrument and measuring the ratio of the integrals of the peaks at 2.90-2.95 ppm and 2.40-2.50 ppm characteristic of the open and closed forms, respectively.

The values that follow come from patent publication US8415295B2, “Heterocyclic boronic acid compounds” (Phenomix Corporation, priority 2003, dated 2013).

Take `O=C(CNC1CCCC1)N1CCC[C@H]1B(O)O` [Compound 4, (2R)-1-(2-Cyclopentylamino-acetyl)-boroPro-OH]: the “open/closed (linear/cyclic) ratio of isomers at each pH” value is listed as “the closed form predominates at higher pHs such as physiological pH, whereas the open form predominates at lower pHs”.
